Source: patent publication US11046672B2, “Indolinones compounds and their use in the treatment of fibrotic diseases” (RESPIVERT LIMITED, priority 2015, dated 2021)
Like-named read-outs stand apart in the source and are kept apart here.

Assays:
PDGFRβ [1] = target: T1, PDGFRβ (Homo sapiens (Human), UniProt P09619); experiment: PDGF-BB induced phosphorylation of PDGFRβ in fibroblasts (MRC5 cells, HTRF); format: cell-based
PAMPA permeability assay = format: in vitro ADME; settings: PAMPA; for recovery at 5 hr, 10 μM: pH 7, PAMPA, donor and acceptor compartments; for Papp at 5 h, 10 μM: pH 7, pH 7, 10 μM
MRC5 cells = experiment: Cell viability assay in MRC5 cells (MTT)
PDGFRβ [2] = target: T1, PDGFRβ; settings: read-out: Ki PDGFRβ
[3] = MRC5 cells, n = 1 unless otherwise indicated, read-out: PDGFBB-induced PDGFRβ phosphorylation in MRC5 cells (IC50)
[4] = mean, n = 2 unless otherwise indicated

T1 sequence (P09619 33-1106): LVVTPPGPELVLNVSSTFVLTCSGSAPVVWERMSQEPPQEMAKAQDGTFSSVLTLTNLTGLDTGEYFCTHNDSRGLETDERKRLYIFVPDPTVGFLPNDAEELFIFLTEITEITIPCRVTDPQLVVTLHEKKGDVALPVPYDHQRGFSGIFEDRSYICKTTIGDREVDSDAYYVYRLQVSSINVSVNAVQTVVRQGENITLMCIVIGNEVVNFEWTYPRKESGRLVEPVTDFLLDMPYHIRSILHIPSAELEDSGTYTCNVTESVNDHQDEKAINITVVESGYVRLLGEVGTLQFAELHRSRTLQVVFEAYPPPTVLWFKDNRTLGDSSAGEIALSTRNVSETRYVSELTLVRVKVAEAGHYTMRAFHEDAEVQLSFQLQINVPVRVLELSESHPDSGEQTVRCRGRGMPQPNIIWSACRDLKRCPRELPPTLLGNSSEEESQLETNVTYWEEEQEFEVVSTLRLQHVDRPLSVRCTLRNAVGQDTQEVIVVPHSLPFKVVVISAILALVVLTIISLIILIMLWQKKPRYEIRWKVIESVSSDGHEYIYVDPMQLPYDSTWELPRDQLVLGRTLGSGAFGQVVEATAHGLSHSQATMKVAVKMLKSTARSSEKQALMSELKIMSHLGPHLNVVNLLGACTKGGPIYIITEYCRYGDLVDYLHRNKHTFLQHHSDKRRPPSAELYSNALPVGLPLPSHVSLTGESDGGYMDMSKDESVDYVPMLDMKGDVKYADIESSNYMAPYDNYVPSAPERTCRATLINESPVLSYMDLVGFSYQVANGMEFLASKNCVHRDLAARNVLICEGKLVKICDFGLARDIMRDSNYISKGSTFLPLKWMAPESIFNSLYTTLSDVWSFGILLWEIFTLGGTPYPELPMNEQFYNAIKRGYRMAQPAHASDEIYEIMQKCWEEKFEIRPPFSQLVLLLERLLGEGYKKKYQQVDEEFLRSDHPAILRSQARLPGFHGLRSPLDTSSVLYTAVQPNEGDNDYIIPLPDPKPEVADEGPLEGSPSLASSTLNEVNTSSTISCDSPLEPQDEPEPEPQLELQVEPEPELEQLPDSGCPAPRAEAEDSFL

Structure (SMILES)	IC50 (PDGFRβ [1]; [3]) [nM]	recovery at 5 hr, 10 μM (PAMPA permeability assay) [%]	Papp at 5 h, 10 μM (PAMPA permeability assay) [×10⁻⁶ cm/s]	Ki (PDGFRβ [2]; [4]) [nM]	Cell viability at 100 nM (%) (MRC5 cells)	Cell viability at 300 nM (%) (MRC5 cells)	Cell viability at 1000 nM (%) (MRC5 cells)	IC50 (PDGFRβ [1]) [nM]	Ki (PDGFRβ [2]) [nM]
COC(=O)c1cc2c(cc1C)/C(=C(/Nc1ccc(S(=O)(=O)NOCCN3CCN(C)CC3)cc1)c1ccccc1)C(=O)N2 [Example 2, (Z)-Methyl 5-methyl-3-(((4-(N-(2-(4-methylpiperazin-1-yl)ethoxy)sulfamoyl)phenyl)amino)(phenyl)methylene)-2-oxoindoline-6-carboxylate]	39.6	54.1	0.0261	19.2	124.5	104.4	101.2	–	–
COC(=O)c1cc2c(cc1C)/C(=C(/Nc1ccc(S(=O)(=O)N(C)OCCN(C)CCO)cc1)c1ccccc1)C(=O)N2 [Example 10, (Z)-Methyl 3-(((4-(N-(2-((2-hydroxyethyl)(methyl)amino)ethoxy)-N-methylsulfamoyl)phenyl)amino)(phenyl)methylene)-5-methyl-2-oxoindoline-6-carboxylate]	–	92.6	24.8	–	105.9	100.9	42	13.6	17.4
COC(=O)c1ccc2c(c1)NC(=O)/C2=C(\Nc1ccc(C(=O)NOCCN2CCN(CCO)CC2)cc1)c1ccccc1 [Example 39]	33.8	–	–	5.39	89.9	90.1	90.8	–	–
COC(=O)c1ccc2c(c1)NC(=O)/C2=C(\Nc1ccc(C(=O)NOCCN2CCC(O)CC2)cc1)c1ccccc1 [Example 40]	29.2	75	0.00954	7.66	103.8	103.8	110.5	–	–
COC(=O)c1ccc2c(c1)NC(=O)/C2=C(\Nc1ccc(C(=O)NOCCN2CCS(=O)(=O)CC2)cc1)c1ccccc1 [Example 41]	37.4	59.6	0.00258	15	112.3	96.1	86.8	–	–
COC(=O)c1ccc2c(c1)NC(=O)/C2=C(\Nc1ccc(C(=O)NOCCN2CCNC(=O)C2)cc1)c1ccccc1 [Example 42]	56.3	76.8	0.0264	7.06	114.5	109.6	118.3	–	–
COC(=O)c1ccc2c(c1)NC(=O)/C2=C(\Nc1ccc(C(=O)NOCCN2[C@H](C)CCC[C@@H]2C)cc1)c1ccccc1 [Example 44]	73.9	–	–	103	103	105.9	109.8	–	–
COC(=O)c1ccc2c(c1)NC(=O)/C2=C(\Nc1ccc(C(=O)NOCCN(C)CCO)cc1)c1ccccc1 [Example 45]	27.2	–	–	14.1	98.9	104.7	80.7	–	–
COCCN1CCN(CCONC(=O)c2ccc(N/C(=C3\C(=O)Nc4cc(C(=O)OC)ccc43)c3ccccc3)cc2)CC1 [Example 46]	31.7	–	–	28.1	120.7	109.5	86.3	–	–
COC(=O)c1ccc2c(c1)NC(=O)/C2=C(\Nc1ccc(C(=O)NOCCN2CCC(N(C)C)CC2)cc1)c1ccccc1 [Example 47]	39	–	–	10.2	112	102.4	93	–	–
COC(=O)c1cc2c(cc1C)/C(=C(/Nc1ccc(C(=O)NOCCCN3CCCCC3)cc1)c1ccccc1)C(=O)N2 [Example 53]	43.8	–	–	20.3	124.2	96.8	97.8	–	–
COC(=O)c1cc2c(cc1C)/C(=C(/Nc1ccc(C(=O)NOCCN3CCC(O)CC3)cc1)c1ccccc1)C(=O)N2 [Example 54]	34.1	–	–	18.1	101	99.8	92.9	–	–
COC(=O)c1cc2c(cc1C)/C(=C(/Nc1ccc(C(=O)N(C)OCCN3CC4CC(C3)N4)cc1)c1ccccc1)C(=O)N2 [Example 66]	15.5	–	–	16	102.8	92.9	53.8	–	–

More lines, in order of falling IC50 (PDGFRβ [1]; [3]), values ahead:

IC50 (PDGFRβ [1]; [3]) [nM]	recovery at 5 hr, 10 μM (PAMPA permeability assay) [%]	Papp at 5 h, 10 μM (PAMPA permeability assay) [×10⁻⁶ cm/s]	Ki (PDGFRβ [2]; [4]) [nM]	Structure (SMILES)	Cell viability at 100 nM (%) (MRC5 cells)	Cell viability at 300 nM (%) (MRC5 cells)	Cell viability at 1000 nM (%) (MRC5 cells)	IC50 (PDGFRβ [1]) [nM]	Ki (PDGFRβ [2]) [nM]
26.9	–	–	22.1	COC(=O)c1cc2c(cc1C)/C(=C(/Nc1ccc(C(=O)N(OC)C3CCN(C)CC3)cc1)c1ccccc1)C(=O)N2 [Example 35]	92.9	77.2	75.7	–	–
24.1	–	–	244	COC(=O)c1ccc2c(c1)NC(=O)/C2=C(\Nc1ccc(C(=O)N2CCO2)cc1)c1ccccc1 [Example 37]	95.2	98.9	106	–	–
19.4	41.5	30	19.8	COC(=O)c1ccc2c(c1)NC(=O)/C2=C(\Nc1ccc(S(=O)(=O)N(C)OCCN2CCN(C)CC2)cc1)c1ccccc1 [Example 25]	108.5	104.8	79.3	–	–
14.6	55.4	0.00569	6.91	COC(=O)c1ccc2c(c1)NC(=O)/C2=C(\Nc1ccc(C(=O)NOCCN2CC[C@H](N(C)C)C2)cc1)c1ccccc1 [Example 38]	89.3	90.8	93	–	–
13.4	–	–	15.8	COC(=O)c1cc2c(cc1C)/C(=C(/Nc1ccc(C(=O)N(OC)C3CCN(C)CC3)c(C)c1)c1ccccc1)C(=O)N2 [Example 34]	114.8	80	61.5	–	–
10.4	61.2	0.00146	4.77	COC(=O)c1cc2c(cc1C)/C(=C(/Nc1ccc(C(=O)NOCCCN(C)C)cc1)c1ccccc1)C(=O)N2 [Example 27]	94.9	88.6	86.4	–	–
9.44	53.1	0.0301	8.46	CCN1CCN(CCONC(=O)c2ccc(N/C(=C3\C(=O)Nc4cc(C(=O)OC)c(C)cc43)c3ccccc3)cc2)CC1 [Example 36]	108.8	93	65.9	–	–
8.99	71.9	0.00743	8.47	COC(=O)c1ccc2c(c1)NC(=O)/C2=C(\Nc1ccc(C(=O)NOCCN2CCN(C)CC2)c(F)c1)c1ccccc1 [Example 33]	110.7	101.3	91.3	–	–
7.72	–	–	6.58	COC(=O)c1cc2c(cc1C)/C(=C(/Nc1ccc(C(=O)NOC3CCN(C)CC3)c(C)c1)c1ccccc1)C(=O)N2 [Example 31]	111.7	97.3	95.7	–	–
7.43	87	0.00225	7.32	COC(=O)c1cc2c(cc1C)/C(=C(/Nc1ccc(C(=O)NOC3CCN(C)CC3)cc1)c1ccccc1)C(=O)N2 [Example 30]	96.1	87.7	26	–	–
5.95	54.6	0.00329	9.62	COC(=O)c1ccc2c(c1)NC(=O)/C2=C(\Nc1ccc(C(=O)NOCCCN(C)C)cc1)c1ccccc1 [Example 19]	108.3	92.7	76.9	–	–
4.74	–	–	15.7	COC(=O)c1cc2c(cc1C)/C(=C(/Nc1ccc(C(=O)NOCCN3CCC(C#N)CC3)cc1)c1ccccc1)C(=O)N2 [Example 63]	99	116.9	12.1	–	–
3.68	51.5	0.424	11	COC(=O)c1ccc2c(c1)NC(=O)/C2=C(\Nc1ccc(C(=O)N(C)OCCN2CCN(C)CC2)c(C)c1)c1ccccc1 [Example 18]	104.5	90.3	68.7	–	–
3.18	65.1	0.00415	7.48	COC(=O)c1cc2c(cc1C)/C(=C(/Nc1ccc(C(=O)NOCCCN(C)C)c(C)c1)c1ccccc1)C(=O)N2 [Example 29]	92	85.8	91.8	–	–
3.09	42.8	0.0192	4.92	COC(=O)c1cc2c(cc1C)/C(=C(/Nc1ccc(C(=O)NOCCN3CCN(C)CC3)c(F)c1)c1ccccc1)C(=O)N2 [Example 32]	93.5	82.3	66.3	–	–
